Assay type in all cases: in vivo, human
Series [1] can be described thus: Concentration of tacrolimus in the cord blood by chemiluminescence immunoassay (ECLIA). The following applies: cord blood at delivery, maternal dose 5 mg/day oral.
Series [2] has as its system infecundity considered to be caused by an abnormality in the immune system. Description: Tacrolimus treatment of infecundity: embryo transplantation outcome. Particulars: tacrolimus 4 mg/day oral (2 mg morning, 2 mg evening); after five unsuccessful embryo transplantations. As for the experimental part:
Two years later, […] hoped to have a second child but suffered from infecundity and was treated for sterility by in vitro fertilization; however, since the treatment was unsuccessful after five embryo transplantations, a close examination of the immune system was conducted. At that time, a marked increase (24.9) in the Th1/Th2 (Th1 32.4, Th2 1.3) ratio was recognized, the illness was judged as infecundity considered to be caused by an abnormality in the immune system, and a tacrolimus treatment was selected.

For series [3], the system named is blood type incompatible pregnancy with negative maternal Rho (D) and positive fetal Rho (D). Kind of series: Treatment of blood type incompatible pregnancy with tacrolimus: fetal and neonatal outcome. The text has this: The patient is a person having blood type A. The patient suffering from a blood type incompatible pregnancy with negative maternal Rho (D) and positive fetal Rho (D) was subjected to the following treatments. That is, at the time of the first pregnancy, anti-D immunoglobulin was not administered during pregnancy, sensitization was effected before delivery, and the anti-D antibody titer at the time of delivery was 8-fold. In week 39, they gave birth by emergency cesarean section due to placental abruption. […] The anti-D antibody titer obtained immediately after the establishment of pregnancy was 4-fold; however, the titer reached 16-fold in week 24 and reached 32-fold in week 26 (FIG. 1, upper part). After that, migration of fetal antigens to the parent's body via the placenta was assumed to further increase, and preparation of plasmapheresis and fetal blood transfusion was initiated in preparation for a rapid increase in the anti-D antibody titer. […] Furthermore, the blood flow velocity in the middle cerebral artery and the estimated body weight of the fetus were measured by fetal ultrasonography.

The test system of the next series is Th1 cells. Description: Analysis of Th1 cells and Th2 cells by flow cytometry. The following applies: maternal blood; week 28 of pregnancy; tacrolimus 4 mg/day oral. As for the experimental part:
For the purpose of evaluating the baseline value of the Th1/Th2 cell ratio, a total of 10 ml of venous blood was collected. Th1 cells and Th2 cells were determined by detecting the production of intracellular interferon (IFN)-γ and IL-4. Specific staining of lymphocytes was performed by incubating whole blood together with anti-CD4-PC5 or anti-CD8-PC5-conjugated monoclonal antibody (rAbs) (Beckman Coulter, Inc., Fullerton, Ca, USA). Red blood cells (RBCs) were removed by hemolysis (using FACS Lysing solution; Becton, Dickinson and Company, BD 134 Biosciences, Franklin Lake, N.J., USA), and lymphocytes were analyzed using flow cytometry (FACSCalibur; Becton, Dickinson and Company). Activated whole blood samples were surface-stained using anti-CD4-PC5-conjugate (Abs), and then RBC hemolysis and specific intracellular staining using FastImmune (trademark) IFN-γ-FITC/IL-4-PE (Becton, Dickinson and Company) were carried out in sequence according to the manufacturer's instructions for use. Th1 cells were defined as CD4^+ lymphocytes accompanied by intracellular IFN-γ but not by intracellular IL-4. Th2 cells were detected as CD4^+ lymphocytes accompanied by intracellular IL-4 but not by intracellular IFN-γ. The ratio of intracellular IFN-γ-positive Th cells with respect to intracellular IL-4-positive Th cells was expressed as the Th1/Th2 cell ratio.
A general note: In flow cytometry, cells or beads pass a laser one at a time.

The test system of another series is anti-D antibody. Description: Anti-D antibody titer by indirect Coombs test in a patient treated with tacrolimus. The procedure:
The measurement is carried out by the indirect Coombs test. The indirect Coombs test is a test in which an anti-immunoglobulin antibody is added to a mixture of the blood serum of a patient and the blood of a healthy person to examine whether a hemagglutination reaction occurs (irregular antibody present in the blood serum is detected) (for the Coombs test, see, for example, Nissan Women's Journal Vol. 59, No. 10, N-617-N-623). The patient is a person having blood type A. The patient suffering from a blood type incompatible pregnancy with negative maternal Rho (D) and positive fetal Rho (D) was subjected to the following treatments. That is, at the time of the first pregnancy, anti-D immunoglobulin was not administered during pregnancy, sensitization was effected before delivery, and the anti-D antibody titer at the time of delivery was 8-fold. In week 39, they gave birth by emergency cesarean section due to placental abruption. […] The anti-D antibody titer obtained immediately after the establishment of pregnancy was 4-fold; however, the titer reached 16-fold in week 24 and reached 32-fold in week 26 (FIG. 1, upper part). After that, migration of fetal antigens to the parent's body via the placenta was assumed to further increase, and preparation of plasmapheresis and fetal blood transfusion was initiated in preparation for a rapid increase in the anti-D antibody titer. […] Furthermore, the blood flow velocity in the middle cerebral artery and the estimated body weight of the fetus were measured by fetal ultrasonography.

Setting [4] is: fetal ultrasonography, tacrolimus 4 then 5 mg/day oral.

Entries after “also recorded” stand apart in the source; their conditions may differ.

Consider `C=CCC1/C=C(\C)CC(C)CC(OC)C2OC(O)(C(=O)C(=O)N3CCCCC3C(=O)OC(/C(C)=C/C3CCC(O)C(OC)C3)C(C)C(O)CC1=O)C(C)CC2OC` (centres unmarked) [tacrolimus, 17-Allyl-1,14-dihydroxy-12-[2-(4-hydroxy-3-methoxycyclohexyl)-1-methylvinyl]-23,25-dimethoxy-13,19,21,27-tetramethyl-11,28-dioxa-4-azatricyclo[22.3.1.04,9]octacos-18-ene-2,3,10,16-tetraone], for which the “concentration of tacrolimus in the cord blood” value in series [1] is reported as “lower than or equal to the detection limit value”. Further, the establishment of pregnancy entry in series [2] is “Pregnancy was established by a single embryo transplantation”. The “malformations and physical functions of the child” value in series [3] (child at birth, maternal tacrolimus during the entire pregnancy) was “no external malformations or visceral malformations and no problem with physical functions”. For the same molecule, the “birth weight of the child” value in series [3] (delivery on day 2 of week 37) is given as 2834 g. For the same molecule, the “fetal anemia (increased blood flow velocity in the middle cerebral artery)” value in series [3] (setting [4]) is reported as “without observing any fetal anemia; also recorded: fetal anemia did not develop during the entire course of pregnancy”. In addition, in series [3] (setting [4]), the “growth of the fetus (estimated body weight)” value was “The body weight smoothly increased; also recorded: growth of the child occurred without any problem”. For the same molecule, the “maternal and fetal conditions / course of pregnancy” value in series [3] (tacrolimus 4 then 5 mg/day oral) is “stable without complications”. The Th1 cell population entry with Th1 cells is “showed a tendency of increase again”. In the series with anti-D antibody (cord blood at delivery), the “anti-D antibody titer in the cord blood” value is recorded as “double”. Moreover, in the series on anti-D antibody (maternal, after dose increase to 5 mg/day in week 28 of pregnancy), the “course of anti-D antibody titer / anti-D antibody production” value was “the titer did not further increase and was stabilized; also recorded: the expected increase in the anti-D antibody titer did not occur at all; also recorded: the production of anti-D antibody was also suppressed”. Besides, the anti-D antibody titer in the series with anti-D antibody (maternal, after dose increase to 5 mg/day oral (week 28) until delivery) was 32 fold; in the series on anti-D antibody (maternal, immediately after the establishment of pregnancy, tacrolimus 4 mg/day oral), 4 fold; in the series with anti-D antibody (maternal, week 24 of pregnancy, tacrolimus 4 mg/day oral) it was 16 fold; with anti-D antibody (maternal, week 26 of pregnancy, tacrolimus 4 mg/day oral), 32 fold.

These data come from patent US20210228551A1, “THERAPEUTIC AGENT FOR HUMORAL IMMUNITY-RELATED DISEASES IN MATERNOFETAL RELATIONSHIP” (priority 2018, published 2021).
